Data published in paper PMC3383625 (Chemistry & biology, 2012).
“And” between values parts separate entries of the source, which are not always exact repeats. Equal values may be shown once. Read-outs that look alike come from different tables or passages of the source. rhodamine = not defined here

Tests used:
[1] = biological target: T1, bis-SH3 domain of p47phox (binding of the PRD of p22phox) (Homo sapiens, UniProt P14598); test: Fluorescence polarization
T1 sequence (P14598 156-285): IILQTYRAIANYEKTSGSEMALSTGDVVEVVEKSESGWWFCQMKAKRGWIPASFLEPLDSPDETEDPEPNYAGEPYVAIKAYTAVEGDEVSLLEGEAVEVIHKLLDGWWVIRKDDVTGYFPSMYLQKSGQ

[2] = system: p47phox and p67phox translocation in neutrophils; format: cell-based, human; conditions: 10 μM ebselen
[3] = biological target: T2, binding of MBP-p22-C and GST-p47-bis-SH3 (Homo sapiens, UniProt P14598); test: Pull-down assay of MBP-p22-C with GST-p47-bis-SH3 on glutathione agarose beads; conditions: 20 μM ebselen
T2 sequence (P14598 156-285): T1 sequence (P14598 156-285)

[4] = system: protein-kinase-C-mediated phosphorylation of p47phox; test: PKC-mediated phosphorylation of p47phox in neutrophils; format: cell-based, human; conditions: 10 μM ebselen
[5] = biological target: T3, p67phox-p47phox association (Homo sapiens, UniProt P14598); test: Co-immunoprecipitation of p67phox with p47phox in PMA-stimulated neutrophils; format: cell-based; conditions: 10 μM ebselen, PMA-stimulated cells
T3 sequence (P14598 1-390): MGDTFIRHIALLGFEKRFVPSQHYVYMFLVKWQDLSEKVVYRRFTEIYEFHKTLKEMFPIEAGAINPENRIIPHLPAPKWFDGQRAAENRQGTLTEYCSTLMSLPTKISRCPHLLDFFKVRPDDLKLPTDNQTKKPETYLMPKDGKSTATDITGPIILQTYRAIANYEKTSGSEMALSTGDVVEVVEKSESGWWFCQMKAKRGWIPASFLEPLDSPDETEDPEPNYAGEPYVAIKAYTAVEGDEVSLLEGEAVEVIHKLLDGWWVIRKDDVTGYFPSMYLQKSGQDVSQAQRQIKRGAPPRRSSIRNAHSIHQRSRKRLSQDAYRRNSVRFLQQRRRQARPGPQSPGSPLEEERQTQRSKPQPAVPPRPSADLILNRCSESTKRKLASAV

[6] = ref Muller et al.,1984; cited from earlier work
[7] = system: guinea pig alveolar macrophages; conditions: read-out: IC50 for inhibition in guinea pig macrophages; ref Leurs et al.,1989; cited from earlier work
PKC = conditions: ref Cotgreave et al.,1989; cited from earlier work
Kupffer cells = conditions: read-out: IC50 for reactive oxygen by luminol luminescence; ref Wang et al.,1992; cited from earlier work
Nox1 = Nox1 (Homo sapiens, UniProt Q9Y5S8); test: Nox1 activity in whole cells
Chain of Nox1 (Q8NFA2 whole entry partner): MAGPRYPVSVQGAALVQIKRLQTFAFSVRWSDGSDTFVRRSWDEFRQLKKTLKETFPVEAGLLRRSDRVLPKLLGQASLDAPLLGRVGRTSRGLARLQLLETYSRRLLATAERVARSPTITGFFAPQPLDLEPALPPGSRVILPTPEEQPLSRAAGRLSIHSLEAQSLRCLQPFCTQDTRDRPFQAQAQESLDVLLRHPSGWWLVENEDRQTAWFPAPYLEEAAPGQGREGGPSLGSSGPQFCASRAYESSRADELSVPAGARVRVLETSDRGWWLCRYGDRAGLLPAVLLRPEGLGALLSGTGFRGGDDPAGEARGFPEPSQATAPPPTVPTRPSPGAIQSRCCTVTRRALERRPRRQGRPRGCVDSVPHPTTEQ
Chain of Nox1 (Q9Y5S8 whole entry): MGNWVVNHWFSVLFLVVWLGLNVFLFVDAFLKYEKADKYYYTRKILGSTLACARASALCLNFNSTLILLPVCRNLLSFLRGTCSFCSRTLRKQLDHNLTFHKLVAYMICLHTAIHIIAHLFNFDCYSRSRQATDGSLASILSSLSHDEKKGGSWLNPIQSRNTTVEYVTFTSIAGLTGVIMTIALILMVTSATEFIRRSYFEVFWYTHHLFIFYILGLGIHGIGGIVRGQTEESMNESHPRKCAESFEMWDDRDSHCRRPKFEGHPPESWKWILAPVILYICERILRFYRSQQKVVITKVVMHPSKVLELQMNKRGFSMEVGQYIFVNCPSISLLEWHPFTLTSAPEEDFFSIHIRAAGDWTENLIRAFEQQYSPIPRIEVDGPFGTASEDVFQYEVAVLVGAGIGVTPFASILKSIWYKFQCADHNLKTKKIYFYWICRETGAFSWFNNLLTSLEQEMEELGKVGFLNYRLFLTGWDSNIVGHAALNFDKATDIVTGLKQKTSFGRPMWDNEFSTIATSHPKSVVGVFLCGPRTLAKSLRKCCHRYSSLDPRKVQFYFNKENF

Nox2 [8] = biological target: T4, Nox2 (Homo sapiens, UniProt P04839); test: Cell-free assay for Nox2-dependent superoxide generation; format: biochemical
Target sequence in this assay (P04839 2-570 limits assumed, one chain of several): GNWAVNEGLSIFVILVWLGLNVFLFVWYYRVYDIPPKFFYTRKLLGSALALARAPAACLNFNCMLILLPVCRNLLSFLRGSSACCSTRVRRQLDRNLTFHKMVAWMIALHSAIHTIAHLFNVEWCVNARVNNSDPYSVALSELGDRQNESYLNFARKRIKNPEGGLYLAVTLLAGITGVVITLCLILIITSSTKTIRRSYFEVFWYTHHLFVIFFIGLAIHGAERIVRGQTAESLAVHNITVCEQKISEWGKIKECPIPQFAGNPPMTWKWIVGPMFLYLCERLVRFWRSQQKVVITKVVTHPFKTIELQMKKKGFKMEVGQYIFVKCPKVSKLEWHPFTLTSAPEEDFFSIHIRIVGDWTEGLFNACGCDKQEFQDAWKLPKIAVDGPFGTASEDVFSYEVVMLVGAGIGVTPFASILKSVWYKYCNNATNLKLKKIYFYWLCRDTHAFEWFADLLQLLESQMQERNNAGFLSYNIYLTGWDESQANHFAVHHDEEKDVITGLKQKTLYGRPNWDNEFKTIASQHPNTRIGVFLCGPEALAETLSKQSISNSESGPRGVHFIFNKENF

Nox2 [9] = biological target: T4, Nox2; test: Nox2 activity in intact PMA-stimulated neutrophils; format: cell-based
Target sequence in this assay (P04839 2-570 limits assumed, one chain of several): as above

Nox4 = biological target: T5, Nox4 (Homo sapiens, UniProt Q9NPH5); test: Nox4 activity in whole cells; format: cell-based; conditions: read-out: EC50 for inhibition of Nox4 activity in whole cell assay; HEK/Nox4rb cells; ns = no significant inhibition
T5 sequence (Q9NPH5 1-578): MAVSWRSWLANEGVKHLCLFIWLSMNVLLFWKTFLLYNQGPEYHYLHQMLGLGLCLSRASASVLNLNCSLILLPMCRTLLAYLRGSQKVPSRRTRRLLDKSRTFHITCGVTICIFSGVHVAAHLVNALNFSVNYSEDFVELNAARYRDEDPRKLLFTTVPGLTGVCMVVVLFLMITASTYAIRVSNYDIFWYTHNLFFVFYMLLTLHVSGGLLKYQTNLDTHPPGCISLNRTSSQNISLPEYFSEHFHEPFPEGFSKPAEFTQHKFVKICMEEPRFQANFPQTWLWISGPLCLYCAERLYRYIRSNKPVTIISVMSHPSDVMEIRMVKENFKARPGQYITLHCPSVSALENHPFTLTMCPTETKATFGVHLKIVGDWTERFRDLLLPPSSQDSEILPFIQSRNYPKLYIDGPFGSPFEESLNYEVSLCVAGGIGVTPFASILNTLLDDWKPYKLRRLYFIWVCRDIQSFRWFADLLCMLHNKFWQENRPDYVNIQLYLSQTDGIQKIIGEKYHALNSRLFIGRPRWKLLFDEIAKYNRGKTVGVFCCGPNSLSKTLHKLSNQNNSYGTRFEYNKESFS
T5 sequence (P13498 2-195 partner limits assumed): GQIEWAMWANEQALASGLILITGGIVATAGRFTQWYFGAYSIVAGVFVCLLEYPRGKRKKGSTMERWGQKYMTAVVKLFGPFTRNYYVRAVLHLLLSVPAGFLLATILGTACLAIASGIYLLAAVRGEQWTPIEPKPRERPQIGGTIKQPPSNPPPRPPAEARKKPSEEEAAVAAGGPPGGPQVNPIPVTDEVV

[10] = biological target: T6, GST-tagged p47phox-bis-SH3 domain (GST-p47-bis-SH3) (human, UniProt P14598 156-285); test: fluorescence polarisation
T6 sequence (looked up): T1 sequence (P14598 156-285)

[11] = comparator as named in text (parent Thr101 or fluoro-derivative j)

With O=c1c2ccccc2[se]n1-c1ccccc1 [Ebselen] the “IC50 in the FP binding assay” value ([1]; rho-PRD plus GST-p47-bis-SH3, 1% DMSO) was “submicromolar”, the “Effect on PMA-stimulated translocation of p47phox and p67phox” value ([2]; 500 nM PMA) was “completely blocked” and the “Effect on translocation in the absence of PMA” value ([2]; no PMA) was “no effect on translocation”. For the same molecule, the “Inhibition of binding of MBP-p22-C and GST-p47-bis-SH3 in pulldown” value [3] was “markedly inhibited”, the “Effect on protein-kinase-C-mediated phosphorylation of p47phox or other neutrophil proteins (words)” value [4] was “did not affect” and the “Effect on protein-kinase-C-mediated phosphorylation of p47phox or other neutrophil proteins (words)” value ([4]; listed as ebselen) was “does not inhibit PKC phosphorylation”. For the same molecule, the “Effect on co-immunoprecipitation of p67phox with p47phox (words)” value [5] was “did affect the ability of p67phox to coimmunoprecipitate with p47phox”, the “Effect on co-immunoprecipitation of p67phox with p47phox (words)” value ([5]; listed as ebselen) was “diminishes the co-immunoprecipitation” and the “Optimum concentration needed to catalyze H2O2 peroxidase activity” value [6] was “about 20 μM”. For the same molecule, the IC50 [7] was ~20000 nM, the “Concentration inhibiting purified PKC enzyme” value (PKC) was “submicromolar” and the IC50 (Kupffer cells) was ~1000 nM. For the same molecule, the EC50 (Nox1) was 150 nM.

With COC(=O)c1ccc(-n2sc3ccccc3c2=O)cc1 [l] the “Fold improvement in binding versus comparator compound” value [1, 11] was ~ 10 fold, the IC50 ([1]; read-out: Potency in the binding assay, FP assay) was 500 nM and the “Fold improvement in activity versus comparator compound” value (Nox2 [8]; [11]) was ~ 10 fold.

With O=c1c2ccccc2sn1-c1ccccc1 [Thr101] the IC50 ([1]; read-out: IC50 in the FP binding assay, rho-PRD plus GST-p47-bis-SH3, 1% DMSO) was 4000 nM and ~4000 nM, the IC50 (Nox2 [8]; read-out: IC50 in the cell-free Nox2 activity assay, neutrophil membranes, 1% DMSO) was 4000 nM and ~4000 nM and the EC50 (Nox2 [9]; read-out: EC50 for inhibition of Nox2 activity in whole cell assay, human neutrophils, ns = no significant inhibition) was 300 nM. It also gave an EC50 (Nox4) of 8000 nM and an EC50 (Nox1; read-out: EC50 for inhibition of Nox1 activity in whole cell assay, HEK/Nox1rb cells, ns = no significant inhibition) of 3000 nM.

With c1ccc2c(c1)[I+]c1ccccc1-2 [DPI, diphenylene iodonium] the “Luminescence relative to incubations containing DMSO vehicle alone” value (Nox2 [8]; cell-free Nox2 assay, data not shown) was “less than 10%” and the “Luminescence relative to DMSO-treated cells” value (Nox2 [9]; neutrophils, 10 uM DPI, data not shown) was “less than 10%”.

B1: rhodamine-labeled peptide corresponding to the PRD of p22phox (rho-PRD) (peptide)
peptide: rhodamine-PPTNPPPRPPAE-NH2
modifications: reading uncertain
In the case of B1, the Kd [10] is reported as 20 to 40 nM and 20 nM.
